Results as given in patent US20100267561A1, “HERBICIDAL PYRIDAZINONE DERIVATIVES” (priority 2007, published 2010).

Tests used:
Type in all cases: in vivo
[1] = tested on: wild oat (AVEFA, Avena fatua); assay: Test F mixtures with safener cloquintocet-mexyl, pre-/postemergence plant response; settings: for AVEFA Obsd. (observed effect) plant response rating, scale 0 to 100: applied alone
Source text: (§1) This test evaluated the effect of mixtures of Compound 3, Compound 11, or Compound 12 with the commercial crop safener cloquintocet-mexyl on three plant species. Seeds of test plants consisting of winter wheat (TRZAW, Triticum aestivum), winter barley (HORVX, Hordeum vulgare), and wild oat (AVEFA, Avena fatua) (a weed) were planted into a blend of loam soil and sand and treated preemergence with a directed soil spray using test chemicals formulated in a non-phytotoxic solvent mixture that included a surfactant. At the same time, plants selected from these crop and weed species were treated with postemergence applications of the test chemicals formulated in the same manner. Plants ranged in height from 2 to 18 cm (1- to 4-leaf stage) for postemergence treatments.
(§2) Plants were grown in a greenhouse using supplemental lighting to maintain a photoperiod of about 16 hours; daytime and nighttime temperatures were about 24-30° C. and 19-21° C., respectively. Balanced fertilizer was applied through the watering system. Treatments consisted of Compound 3, Compound 11, or Compound 12 and the above mentioned safener alone and in combination using a spray volume of 457 L/ha. Each treatment was replicated three times. Treated plants and controls were maintained in a greenhouse for 14 to 21 days, after which time all treated plants were compared to controls and visually evaluated. Plant response ratings were calculated as the means of the three replicates and are summarized in Tables F1 to F6, and are based on a scale of 0 to 100 where 0 is no effect and 100 is complete control. Because cloquintocet-mexyl alone caused no injury at the rates tested, the expected effect of a mixture of Compound 3 with cloquintocet-mexyl is the same as the observed effect of Compound 3 applied alone.

[2] = tested on: winter barley (HORVX, Hordeum vulgare); assay: as above; settings: for HORVX Obsd. (observed effect) plant response rating, scale 0 to 100: applied alone
Source text: as §1, §2

[3] = tested on: winter wheat (TRZAW, Triticum aestivum); assay: as above; settings: for TRZAW Obsd. (observed effect) plant response rating, scale 0 to 100: applied alone
Source text: as §1, §2

[4] = tested on: wild oat (AVEFA, Avena fatua); assay: Test G mixtures of Compound 26 with crop safeners, postemergence plant response; settings: applied alone, 125 g a.i./ha
[5] = tested on: winter barley (HORVX, Hordeum vulgare); assay: as above; settings: applied alone, 125 g a.i./ha
[6] = tested on: winter wheat (TRZAW, Triticum aestivum); assay: as above; settings: applied alone, 125 g a.i./ha

SMILES: CCCCCC(C)OC(=O)COc1ccc(Cl)c2cccnc12 (stereo not drawn) [cloquintocet-mexyl, reference compound]
- AVEFA Obsd. (observed effect) plant response rating, scale 0 to 100 ([1]; postemergence, 4 g a.i./ha): 0
- AVEFA Obsd. (observed effect) plant response rating, scale 0 to 100 ([1]; postemergence, 8 g a.i./ha): 0
- AVEFA Obsd. (observed effect) plant response rating, scale 0 to 100 ([1]; preemergence, 4 g a.i./ha): 0
- AVEFA Obsd. (observed effect) plant response rating, scale 0 to 100 ([1]; preemergence, 8 g a.i./ha): 0
- plant response (injury), safener alone ([1]; wild oat, safener alone at the rates tested, pre- and postemergence, 14 to 21 days): no injury
- HORVX Obsd. (observed effect) plant response rating, scale 0 to 100 ([2]; postemergence, 4 g a.i./ha): 0
- HORVX Obsd. (observed effect) plant response rating, scale 0 to 100 ([2]; postemergence, 8 g a.i./ha): 0
- HORVX Obsd. (observed effect) plant response rating, scale 0 to 100 ([2]; preemergence, 4 g a.i./ha): 0
- HORVX Obsd. (observed effect) plant response rating, scale 0 to 100 ([2]; preemergence, 8 g a.i./ha): 0
- plant response (injury), safener alone ([2]; winter barley, safener alone at the rates tested, pre- and postemergence, 14 to 21 days): no injury
- TRZAW Obsd. (observed effect) plant response rating, scale 0 to 100 ([3]; postemergence, 4 g a.i./ha): 0
- TRZAW Obsd. (observed effect) plant response rating, scale 0 to 100 ([3]; postemergence, 8 g a.i./ha): 0
- TRZAW Obsd. (observed effect) plant response rating, scale 0 to 100 ([3]; preemergence, 4 g a.i./ha): 0
- TRZAW Obsd. (observed effect) plant response rating, scale 0 to 100 ([3]; preemergence, 8 g a.i./ha): 0
- plant response (injury), safener alone ([3]; winter wheat, safener alone at the rates tested, pre- and postemergence, 14 to 21 days): no injury
- AVEFA Obsd. (observed effect) plant response rating, scale 0 to 100 [4]: 0
- HORVX Obsd. (observed effect) plant response rating, scale 0 to 100 [5]: 0
- TRZAW Obsd. (observed effect) plant response rating, scale 0 to 100 [6]: 0
